Measured values taken from patent US9725414B2, “Fungicidal N-bicycloalkyl and N-tricycloalkyl pyrazole-4-(thio)carboxamide derivatives” (priority 2011, dated 2017).

Columns and labels:
Uromyces appendiculatus = assay: Example Q: in vivo preventive test on Uromyces appendiculatus (bean rust); settings: Uromyces appendiculatus on bean plants, 500 ppm of active ingredient, grading 11 days after contamination
Outline: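 Saxa bean plants at 2-leaf stage, grown at 24° C., sprayed preventively with compound; 24 h later inoculated with U. appendiculatus spores (150 000 spores per mL). Percent efficacy graded 11 days after inoculation versus solvent-treated controls.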

Puccinia triticina = assay: Example L: in vivo preventive test on Puccinia triticina (wheat); settings: 500 ppm of active ingredient, evaluated 8 days after inoculation
Procedure: In Vivo Preventive Test on Puccinia triticina (Wheat)
Solvent: 49 parts by weight of N,N-dimethylacetamide
Emulsifier: 1 part by weight of alkylaryl polyglycol ether
To produce a suitable preparation of active compound, 1 part by weight of active compound or active compound combination is mixed with the stated amounts of solvent and emulsifier, and the concentrate is diluted with water to the desired concentration.
To test for preventive activity, young plants are sprayed with the preparation of active compound or active compound combination at the stated rate of application.
After the spray coating has been dried, the plants are sprayed with a spore suspension of Puccinia triticina.
The plants remain for 48 hours in an incubation cabinet at approximately 20° C. and a relative atmospheric humidity of approximately 100%.
The plants are placed in the greenhouse at a temperature of approximately 20° C. and a relative atmospheric humidity of approximately 80%.
The test is evaluated 8 days after the inoculation. 0% means an efficacy which corresponds to that of the untreated control, while an efficacy of 100% means that no disease is observed.

Septoria tritici = assay: Example H: in vivo preventive test on Septoria tritici (wheat), N,N-dimethylacetamide/emulsifier preparation; settings: 500 ppm of active ingredient, evaluated 21 days after inoculation
Procedure: (§1) In Vivo Preventive Test on Septoria tritici (Wheat) Solvent: 49 parts by weight of N,N-dimethylacetamide Emulsifier: 1 part by weight of alkylaryl polyglycol ether To produce a suitable preparation of active compound, 1 part by weight of active compound or active compound combination is mixed with the stated amounts of solvent and emulsifier, and the concentrate is diluted with water to the desired concentration. To test for preventive activity, young plants are sprayed with the preparation of active compound or active compound combination at the stated rate of application. After the spray coating has been dried, the plants are sprayed with a spore suspension of Septoria tritici. The plants remain for 48 hours in an incubation cabinet at approximately 20° C. and a relative atmospheric humidity of approximately 100% and afterwards for 60 hours at approximately 15° C. in a translucent incubation cabinet at a relative atmospheric humidity of approximately 100%.

Leptosphaeria nodorum = assay: Example K: in vivo preventive test on Leptosphaeria nodorum (wheat); settings: 500 ppm of active ingredient, evaluated 8 days after inoculation
Procedure: as §1, with “Leptosphaeria nodorum” for “Septoria tritici”, “Leptosphaeria nodorum.” for “Septoria tritici.”, “approximately” for “approximately 100% and afterwards for 60 hours at approximately 15° C. in a translucent incubation cabinet at a relative atmospheric humidity of approximately”

[1] = log P by HPLC on reversed-phase column (C 18), EEC Directive 79831 Annex V.A8; format: physicochemical; settings: HPLC reversed-phase C 18, 40° C., 0.1% aqueous formic acid and acetonitrile gradient; several values = mixture of two or more isomers
Outline: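 Reversed-phase C18 HPLC at 40° C, 0.1% aqueous formic acid/acetonitrile linear gradient 10% to 90% acetonitrile, per EEC Directive 79831 Annex V.A8. log P obtained from retention time by linear interpolation between unbranched alkan-2-ones (C3-C16) of known log P.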

[2] = test system: Blumeria graminis f.sp. hordei; assay: Example J: in vivo preventive test on Blumeria graminis (barley); settings: 500 ppm of active ingredient, evaluated 7 days after inoculation
Procedure: In Vivo Preventive Test on Blumeria graminis (Barley) Solvent: 49 parts by weight of N,N-dimethylacetamide Emulsifier: 1 part by weight of alkylaryl polyglycol ether To produce a suitable preparation of active compound, 1 part by weight of active compound or active compound combination is mixed with the stated amounts of solvent and emulsifier, and the concentrate is diluted with water to the desired concentration. To test for preventive activity, young plants are sprayed with the preparation of active compound or active compound combination at the stated rate of application. After the spray coating has been dried, the plants are dusted with spores of Blumeria graminis f.sp. hordei.

[3] = test system: Fusarium nivale (var. majus); assay: Example N: in vivo preventive test on Fusarium nivale (wheat); settings: 500 ppm of active ingredient, evaluated 5 days after inoculation
Procedure: In Vivo Preventive Test on Fusarium nivale (Wheat) Solvent: 49 parts by weight of N,N-dimethylacetamide Emulsifier: 1 part by weight of alkylaryl polyglycol ether To produce a suitable preparation of active compound, 1 part by weight of active compound or active compound combination is mixed with the stated amounts of solvent and emulsifier, and the concentrate is diluted with water to the desired concentration. To test for preventive activity, young plants are sprayed with the preparation of active compound or active compound combination at the stated rate of application. After the spray coating has been dried, the plants are slightly injured by using a sandblast and afterwards they are sprayed with a conidia suspension of Fusarium nivale (var. majus). The plants are placed in the greenhouse under a translucent incubation cabinet at a temperature of approximately 10° C. and a relative atmospheric humidity of approximately 100%.

Venturia inaequalis = assay: Example G: in vivo preventive test on Venturia inaequalis (apple scab); settings: 100 ppm of active ingredient, evaluated 10 days after inoculation
Procedure: In Vivo Preventive Test on Venturia inaequalis (Apple Scab) Solvent: 24.5 parts by weight of acetone • 24.5 parts by weight of N,N-dimethylacetamide Emulsifier: 1 part by weight of alkylaryl polyglycol ether To produce a suitable preparation of active compound, 1 part by weight of active compound is mixed with the stated amounts of solvent and emulsifier, and the concentrate is diluted with water to the desired concentration. To test for preventive activity, young plants are sprayed with the preparation of active compound at the stated rate of application. After the spray coating has dried on, the plants are inoculated with an aqueous conidia suspension of the causal agent of apple scab (Venturia inaequalis) and then remain for 1 day in an incubation cabinet at approximately 20° C. and a relative atmospheric humidity of 100%. The plants are then placed in a greenhouse at approximately 21° C. and a relative atmospheric humidity of approximately 90%.

| SMILES | logP [1] | Efficacy (Uromyces appendiculatus) | Efficacy (Puccinia triticina) | Efficacy (Septoria tritici) | Efficacy (Leptosphaeria nodorum) | Efficacy [2] | Efficacy [3] | Efficacy (Venturia inaequalis) |
| --- | --- | --- | --- | --- | --- | --- | --- | --- |
| Cn1nc(C(F)F)c(C(=O)N(C2CC2)C2CC3CCCCC3C2)c1F (stereo not shown) [Example 12] | 4.11 | 97% | 100% | 100% | 93% | 100% | 100% | – |
| Cn1nc(C(F)F)c(C(=O)N(C2CC2)C2CCCC3CCCC32)c1F (stereo not shown) [Example 19] | 3.99 | 100% | 100% | 100% | 100% | 100% | 100% | 100% |
| Cn1cc(C(=O)N(C2CC2)C2CCCC3CCCC32)c(C(F)F)n1 (stereo not shown) [Example 20] | 3.48 | 100% | 78% | 100% | 86% | 95% | 100% | – |

Continued, in another order:

| logP [1] | SMILES | Efficacy (Uromyces appendiculatus) | Efficacy (Puccinia triticina) | Efficacy (Septoria tritici) | Efficacy (Leptosphaeria nodorum) | Efficacy [2] | Efficacy [3] | Efficacy (Venturia inaequalis) |
| --- | --- | --- | --- | --- | --- | --- | --- | --- |
| 4.41 | Cn1nc(C(F)F)c(C(=O)N(CC2CCC3CCCC3C2)C2CC2)c1F (stereo not shown) [Example 62] | 100% | 100% | 100% | 100% | 100% | 100% | – |
| 4.91 | Cn1nc(C(F)F)c(C(=O)N(CC2(Cc3ccccc3)CC3CCC2C3)C2CC2)c1F (stereo not shown) [Example 69] | 96% | – | 100% | 100% | 100% | 93% | – |
| 3.58 | Cn1nc(C(F)F)c(C(=O)N(CC2CC3CCC2C3)C2CC2)c1F (stereo not shown) [Example 71] | – | 100% | 100% | 100% | 100% | 100% | 100% |
| 4.01 | CC(C1CC2CCC1C2)N(C(=O)c1c(C(F)F)nn(C)c1F)C1CC1 (stereo not shown) [Example 93] | – | 100% | 83% | 100% | 100% | 100% | 100% |
